Key:
[1] = target: T1, beta-catenin-B-cell lymphoma 9 protein complex (Homo sapiens, UniProt P35222); assay: Inhibition of full length C-terminal 6-His-tagged beta-catenin (1 to 781 residues) (unknown origin) expressed in Escherichia coli BL21 (DE3)-N-terminal biotinylated human BCL9 (350 to 375 residues) protein-protein interaction incubated for 1 hr by Alphascreen assay
T1 sequence (P35222 whole entry): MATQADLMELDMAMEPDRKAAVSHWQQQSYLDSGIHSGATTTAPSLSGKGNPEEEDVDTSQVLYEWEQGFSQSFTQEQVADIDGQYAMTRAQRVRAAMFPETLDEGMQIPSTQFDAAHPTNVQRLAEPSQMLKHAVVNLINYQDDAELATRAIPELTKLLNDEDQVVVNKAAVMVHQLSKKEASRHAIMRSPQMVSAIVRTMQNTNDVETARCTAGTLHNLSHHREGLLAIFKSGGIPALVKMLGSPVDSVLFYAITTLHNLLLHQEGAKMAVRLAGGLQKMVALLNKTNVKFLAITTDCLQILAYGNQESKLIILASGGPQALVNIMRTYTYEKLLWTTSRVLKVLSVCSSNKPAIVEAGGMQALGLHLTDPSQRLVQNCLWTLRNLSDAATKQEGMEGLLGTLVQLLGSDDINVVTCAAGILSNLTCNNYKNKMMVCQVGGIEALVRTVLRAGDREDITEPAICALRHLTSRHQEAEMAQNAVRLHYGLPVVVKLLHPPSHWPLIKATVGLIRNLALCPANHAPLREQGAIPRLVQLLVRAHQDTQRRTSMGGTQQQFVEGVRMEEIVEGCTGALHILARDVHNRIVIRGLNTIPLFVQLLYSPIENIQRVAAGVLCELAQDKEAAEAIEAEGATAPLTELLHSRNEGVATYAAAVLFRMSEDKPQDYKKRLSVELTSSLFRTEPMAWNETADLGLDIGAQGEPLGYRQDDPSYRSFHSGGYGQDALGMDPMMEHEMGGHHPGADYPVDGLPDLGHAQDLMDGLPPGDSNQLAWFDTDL
T1 sequence (O00512 whole entry): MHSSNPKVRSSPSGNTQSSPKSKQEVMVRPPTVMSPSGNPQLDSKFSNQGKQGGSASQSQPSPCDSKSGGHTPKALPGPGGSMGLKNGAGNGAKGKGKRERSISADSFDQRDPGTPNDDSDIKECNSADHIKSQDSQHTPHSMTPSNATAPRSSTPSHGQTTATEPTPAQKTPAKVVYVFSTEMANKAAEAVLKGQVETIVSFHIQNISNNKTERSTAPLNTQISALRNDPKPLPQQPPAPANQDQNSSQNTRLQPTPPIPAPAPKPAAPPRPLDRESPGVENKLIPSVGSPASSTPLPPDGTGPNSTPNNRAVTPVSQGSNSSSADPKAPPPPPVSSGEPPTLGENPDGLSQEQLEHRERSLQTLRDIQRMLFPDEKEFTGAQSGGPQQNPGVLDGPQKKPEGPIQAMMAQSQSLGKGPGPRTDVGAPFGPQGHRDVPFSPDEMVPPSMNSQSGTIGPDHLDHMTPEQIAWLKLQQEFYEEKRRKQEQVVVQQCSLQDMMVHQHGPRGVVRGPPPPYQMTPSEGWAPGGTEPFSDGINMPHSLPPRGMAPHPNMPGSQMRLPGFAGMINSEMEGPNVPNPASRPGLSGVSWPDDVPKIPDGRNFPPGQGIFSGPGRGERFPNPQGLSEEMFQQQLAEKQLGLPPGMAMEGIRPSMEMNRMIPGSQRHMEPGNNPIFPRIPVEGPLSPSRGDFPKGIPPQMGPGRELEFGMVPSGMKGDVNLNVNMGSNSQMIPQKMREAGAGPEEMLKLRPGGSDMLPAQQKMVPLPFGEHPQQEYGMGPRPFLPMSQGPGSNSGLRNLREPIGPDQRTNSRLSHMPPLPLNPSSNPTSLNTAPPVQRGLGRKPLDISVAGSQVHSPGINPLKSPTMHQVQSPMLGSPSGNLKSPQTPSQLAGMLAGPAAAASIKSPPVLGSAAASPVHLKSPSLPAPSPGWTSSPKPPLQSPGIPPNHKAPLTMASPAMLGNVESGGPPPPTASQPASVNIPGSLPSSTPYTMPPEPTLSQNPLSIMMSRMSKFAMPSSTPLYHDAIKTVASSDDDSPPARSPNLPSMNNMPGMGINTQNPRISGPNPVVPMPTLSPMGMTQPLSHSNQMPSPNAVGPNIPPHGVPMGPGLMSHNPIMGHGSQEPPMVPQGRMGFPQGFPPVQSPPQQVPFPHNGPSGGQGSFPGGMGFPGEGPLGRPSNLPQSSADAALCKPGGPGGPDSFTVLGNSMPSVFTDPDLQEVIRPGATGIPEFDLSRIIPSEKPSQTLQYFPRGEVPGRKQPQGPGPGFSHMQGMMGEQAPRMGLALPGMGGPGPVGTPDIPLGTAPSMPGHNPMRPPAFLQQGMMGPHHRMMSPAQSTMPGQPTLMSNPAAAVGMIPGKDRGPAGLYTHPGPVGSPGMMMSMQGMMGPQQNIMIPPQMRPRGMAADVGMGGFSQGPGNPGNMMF

SW480 [2] = assay: Inhibition of Wnt/beta-catenin transactivation signalling in human SW480 cells harboring mutant tcf4 binding sites assessed as relative activity at 6.25 uM incubated for 24 hrs by FOPFlash luciferase assay relative to control; format: cell-based; parameters: scale not given: the % may be the effect or the level left
SW480 [3] = assay: Inhibition of Wnt/beta-catenin transactivation signalling in human SW480 cells harboring mutant tcf4 binding sites assessed as relative activity at 12.5 uM incubated for 24 hrs by FOPFlash luciferase assay relative to control; format: cell-based; parameters: scale not given: the % may be the effect or the level left
MCF-10A = assay: Antiproliferative activity against human MCF10A cells incubated for 72 hrs by MTS assay; format: functional, cell-based
SW480 [4] = assay: Inhibition of Wnt/beta-catenin transactivation signalling in human SW480 cells harboring mutant tcf4 binding sites assessed as relative activity at 3.125 uM incubated for 24 hrs by FOPFlash luciferase assay relative to control; format: cell-based; parameters: scale not given: the % may be the effect or the level left
MDA-MB-468 = assay: Antiproliferative activity against human MDA-MB-468 cells incubated for 72 hrs by MTS assay; format: functional, cell-based; details: MDA-MB-468, 72 h
HCT-116 = assay: Antiproliferative activity against human HCT116 cells incubated for 72 hrs by MTS assay; format: functional, cell-based; details: HCT-116, 72 h
MDA-MB-231 = assay: Antiproliferative activity against human MDA-MB-231 cells incubated for 72 hrs by MTS assay; format: functional, cell-based; details: MDA-MB-231, 72 h
[5] = (§1) Inhibition of Wnt/beta-catenin transactivation signalling in human SW480 cells harboring wild type tcf4 binding sites incubated for 24 hrs by TOPFlash luciferase assay; format: cell-based
SW480 [6] = assay: as §1; format: cell-based
SW480 [7] = assay: Antiproliferative activity against human SW480 cells incubated for 72 hrs by MTS assay; format: functional, cell-based; details: SW480, 72 h

IC50 [1]	Ki [1]	SMILES	further results
> 100 µM	> 90 µM	Cn1cc(-c2ccc(CN(C(=O)C3CCCN(c4cccc(OC(C)(C)C(=O)O)c4)C3)C3CC3)cc2)cn1 (stereo unspecified)	
6.3 µM	5.1 µM	CC(C)(Oc1cccc(N2CCCC(C(=O)N(Cc3ccc(-c4cccs4)cc3)C3CC3)C2)c1)C(=O)NS(=O)(=O)c1cccc(C#N)c1 (stereo unspecified)	
4.8 µM	3.9 µM	CC(C)(Oc1cccc(N2CCC[C@@H](C(=O)N(Cc3ccc(-c4cccs4)cc3)C3CC3)C2)c1)C(=O)NS(=O)(=O)c1ccc(C#N)cc1	
59 µM	50 µM	CCN(Cc1ccc(C(C)C)cc1)C(=O)C1CCCN(c2cccc(OC(C)(C)C(=O)O)c2)C1 (stereo unspecified)	
5.1 µM	4.1 µM	COc1cccc(S(=O)(=O)NC(=O)C(C)(C)Oc2cccc(N3CCCC(C(=O)N(Cc4ccc(-c5cccs5)cc4)C4CC4)C3)c2)c1 (stereo unspecified)	
13 µM	11 µM	CC(C)S(=O)(=O)NC(=O)C(C)(C)Oc1cccc(N2CCCC(C(=O)N(Cc3ccc(-c4cccs4)cc3)C3CC3)C2)c1 (stereo unspecified)	
> 100 µM	> 90 µM	CC(C)(C)OC(=O)C(C)(C)Oc1cccc(N2CCCC(C(=O)N(Cc3ccc(-c4cccs4)cc3)C3CC3)C2)c1 (stereo unspecified)	IC50 (MCF-10A): > 200 µM; IC50 (MDA-MB-468): > 200 µM; IC50 (HCT-116): > 200 µM; IC50 (MDA-MB-231): > 200 µM; IC50 (SW480 [7]): > 200 µM
> 100 µM	> 90 µM	CC(C)(Oc1cccc(N2CCCC(C(=O)N(Cc3ccc(-c4cn[nH]c4)cc3)C3CC3)C2)c1)C(=O)O (stereo unspecified)	
92 µM	82 µM	CC(C)c1ccc(CCNC(=O)C2CCCN(c3cccc(OC(C)(C)C(=O)O)c3)C2)cc1 (stereo unspecified)	
35 µM	30 µM	CC(C)(Oc1cccc(N2CCCC(C(=O)N(Cc3ccc(-c4ccsc4)cc3)C3CC3)C2)c1)C(=O)O (stereo unspecified)	
40 µM	36 µM	CC(C)c1ccc(CN(C(=O)C2CCCN(c3cccc(OC(C)(C)C(=O)O)c3)C2)C2CC2)cc1 (stereo unspecified)	
> 100 µM	> 90 µM	Cn1nccc1-c1ccc(CN(C(=O)C2CCCN(c3cccc(OC(C)(C)C(=O)O)c3)C2)C2CC2)cc1 (stereo unspecified)	

More lines, now with the values behind:

SMILES	IC50 [1]	Ki [1]	further results
CC(C)(Oc1cccc(N2CCCC(C(=O)N(Cc3ccc(-c4ccn[nH]4)cc3)C3CC3)C2)c1)C(=O)O (stereo unspecified)	72 µM	61 µM	
COc1ccc(S(=O)(=O)NC(=O)C(C)(C)Oc2cccc(N3CCCC(C(=O)N(Cc4ccc(-c5cccs5)cc4)C4CC4)C3)c2)cc1 (stereo unspecified)	6.1 µM	4.9 µM	
CC(C)(Oc1cccc(N2CCCC(C(=O)N(Cc3ccc(-c4cccs4)cc3)C3CC3)C2)c1)C(=O)NS(=O)(=O)c1ccccc1 (stereo unspecified)	7.7 µM	6.4 µM	
COC(=O)C(C)(C)Oc1cccc(N2CCCC(C(=O)N(Cc3ccc(-c4cccs4)cc3)C3CC3)C2)c1 (stereo unspecified)	> 100 µM	> 90 µM	
COc1cccc(S(=O)(=O)NC(=O)C(C)(C)Oc2cccc(N3CCC[C@H](C(=O)N(Cc4ccc(-c5cccs5)cc4)C4CC4)C3)c2)c1	2.9 µM	2.3 µM	Activity (SW480 [2]): 81%; Activity (SW480 [3]): 54%; IC50 (MCF-10A): 30.4 µM; Activity (SW480 [4]): 98%; IC50 (MDA-MB-468): 15.4 µM; IC50 (HCT-116): 29.9 µM; IC50 (MDA-MB-231): 19.8 µM; IC50 [5]: 7.8 µM; Activity (SW480 [6]): Dose-Dependent Effect; IC50 (SW480 [7]): 28.2 µM
COc1cccc(S(=O)(=O)NC(=O)C(C)(C)Oc2cccc(N3CCC[C@@H](C(=O)N(Cc4ccc(-c5cccs5)cc4)C4CC4)C3)c2)c1	5.7 µM	4.6 µM	
CC(C)(Oc1cccc(N2CCCC(C(=O)N(Cc3ccc(-c4cccs4)cc3)C3CC3)C2)c1)C(=O)NS(C)(=O)=O (stereo unspecified)	24 µM	21 µM	
CC(C)(Oc1cccc(N2CCCC(C(=O)N(Cc3ccc(-c4cccs4)cc3)C3CC3)C2)c1)C(=O)O (stereo unspecified)	15 µM	13 µM	IC50 (MCF-10A): 98.5 µM; IC50 (MDA-MB-468): 95.9 µM; IC50 (HCT-116): 112 µM; IC50 (MDA-MB-231): 103 µM; IC50 (SW480 [7]): 137 µM
CC(C)(Oc1cccc(N2CCCC(C(=O)N(Cc3ccc(-c4cccs4)cc3)C3CC3)C2)c1)C(=O)NS(=O)(=O)c1ccc(C#N)cc1 (racemic)	4.8 µM	3.9 µM	
CC(C)c1ccc(CNC(=O)C2CCCN(c3cccc(OC(C)(C)C(=O)O)c3)C2)cc1 (stereo unspecified)	83 µM	71 µM	
CC(C)(Oc1cccc(N2CCCC(C(=O)N(Cc3ccc(-c4cccs4)cc3)C3CC3)C2)c1)C(=O)NS(=O)(=O)C1CC1 (stereo unspecified)	23 µM	19 µM	
CC(C)c1ccc(CN(C(=O)C2CCCN(c3cccc(OC(C)(C)C(=O)O)c3)C2)C(C)C)cc1 (stereo unspecified)	52 µM	46 µM	
CC(C)(Oc1cccc(N2CCCC(C(=O)N(Cc3ccc(-c4cccs4)cc3)C3CC3)C2)c1)C(=O)NS(=O)(=O)c1cccc(O)c1 (stereo unspecified)	7.1 µM	5.8 µM	
CC(C)c1ccc(CN(C)C(=O)C2CCCN(c3cccc(OC(C)(C)C(=O)O)c3)C2)cc1 (stereo unspecified)	71 µM	59 µM	
CC(C)(Oc1cccc(N2CCCC(C(=O)N(Cc3ccc(-c4ccoc4)cc3)C3CC3)C2)c1)C(=O)O (stereo unspecified)	> 100 µM	> 90 µM	
CC(C)(Oc1cccc(N2CCCC(C(=O)N(Cc3ccc(-c4ccco4)cc3)C3CC3)C2)c1)C(=O)O (stereo unspecified)	50 µM	42 µM	
